Measurements: US10481149B2
Like-named read-outs stand apart in the source and are kept apart here.

Experiments:
BSEP [1] = target: T1, BSEP (Rattus norvegicus, UniProt O70127); assay: Inhibition of BSEP activity (transport of glycocholate) in rat hepatocytes
T1 sequence (O70127 1-1321): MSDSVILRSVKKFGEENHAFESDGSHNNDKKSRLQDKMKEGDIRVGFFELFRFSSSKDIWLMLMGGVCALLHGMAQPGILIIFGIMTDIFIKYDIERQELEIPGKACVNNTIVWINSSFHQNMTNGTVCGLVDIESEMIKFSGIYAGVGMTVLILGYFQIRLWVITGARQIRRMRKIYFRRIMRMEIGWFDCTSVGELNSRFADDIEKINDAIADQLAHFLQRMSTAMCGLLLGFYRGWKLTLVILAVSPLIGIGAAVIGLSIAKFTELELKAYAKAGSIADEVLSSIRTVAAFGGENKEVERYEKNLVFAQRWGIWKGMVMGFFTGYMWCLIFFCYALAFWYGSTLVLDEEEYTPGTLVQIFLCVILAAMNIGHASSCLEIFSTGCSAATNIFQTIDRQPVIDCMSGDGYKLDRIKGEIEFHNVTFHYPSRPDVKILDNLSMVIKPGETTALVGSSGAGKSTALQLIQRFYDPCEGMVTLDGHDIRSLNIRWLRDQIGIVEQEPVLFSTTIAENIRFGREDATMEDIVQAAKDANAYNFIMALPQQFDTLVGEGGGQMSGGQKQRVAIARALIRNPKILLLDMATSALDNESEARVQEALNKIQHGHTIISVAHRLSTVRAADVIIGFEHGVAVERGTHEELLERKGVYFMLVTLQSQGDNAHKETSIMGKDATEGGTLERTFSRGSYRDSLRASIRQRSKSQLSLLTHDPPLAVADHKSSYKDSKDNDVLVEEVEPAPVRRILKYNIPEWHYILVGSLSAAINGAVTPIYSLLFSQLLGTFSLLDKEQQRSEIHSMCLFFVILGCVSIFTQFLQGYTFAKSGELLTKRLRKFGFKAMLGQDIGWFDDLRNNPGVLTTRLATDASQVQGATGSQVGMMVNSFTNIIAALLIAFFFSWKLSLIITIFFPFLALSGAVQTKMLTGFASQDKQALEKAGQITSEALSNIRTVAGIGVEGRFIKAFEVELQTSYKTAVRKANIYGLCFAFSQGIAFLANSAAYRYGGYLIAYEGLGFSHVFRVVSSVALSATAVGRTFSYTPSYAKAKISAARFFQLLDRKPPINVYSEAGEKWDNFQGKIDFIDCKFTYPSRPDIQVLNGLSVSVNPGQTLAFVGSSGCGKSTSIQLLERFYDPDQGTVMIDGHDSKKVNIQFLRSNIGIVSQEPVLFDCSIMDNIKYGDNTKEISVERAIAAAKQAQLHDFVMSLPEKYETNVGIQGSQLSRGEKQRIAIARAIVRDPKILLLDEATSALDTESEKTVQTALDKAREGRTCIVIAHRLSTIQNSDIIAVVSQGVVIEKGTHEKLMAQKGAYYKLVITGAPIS

BSEP [2] = target: BSEP (Homo sapiens, UniProt O95342); assay: in vitro
Chain of BSEP (Homo sapiens, UniProt O95342) (O95342 whole entry): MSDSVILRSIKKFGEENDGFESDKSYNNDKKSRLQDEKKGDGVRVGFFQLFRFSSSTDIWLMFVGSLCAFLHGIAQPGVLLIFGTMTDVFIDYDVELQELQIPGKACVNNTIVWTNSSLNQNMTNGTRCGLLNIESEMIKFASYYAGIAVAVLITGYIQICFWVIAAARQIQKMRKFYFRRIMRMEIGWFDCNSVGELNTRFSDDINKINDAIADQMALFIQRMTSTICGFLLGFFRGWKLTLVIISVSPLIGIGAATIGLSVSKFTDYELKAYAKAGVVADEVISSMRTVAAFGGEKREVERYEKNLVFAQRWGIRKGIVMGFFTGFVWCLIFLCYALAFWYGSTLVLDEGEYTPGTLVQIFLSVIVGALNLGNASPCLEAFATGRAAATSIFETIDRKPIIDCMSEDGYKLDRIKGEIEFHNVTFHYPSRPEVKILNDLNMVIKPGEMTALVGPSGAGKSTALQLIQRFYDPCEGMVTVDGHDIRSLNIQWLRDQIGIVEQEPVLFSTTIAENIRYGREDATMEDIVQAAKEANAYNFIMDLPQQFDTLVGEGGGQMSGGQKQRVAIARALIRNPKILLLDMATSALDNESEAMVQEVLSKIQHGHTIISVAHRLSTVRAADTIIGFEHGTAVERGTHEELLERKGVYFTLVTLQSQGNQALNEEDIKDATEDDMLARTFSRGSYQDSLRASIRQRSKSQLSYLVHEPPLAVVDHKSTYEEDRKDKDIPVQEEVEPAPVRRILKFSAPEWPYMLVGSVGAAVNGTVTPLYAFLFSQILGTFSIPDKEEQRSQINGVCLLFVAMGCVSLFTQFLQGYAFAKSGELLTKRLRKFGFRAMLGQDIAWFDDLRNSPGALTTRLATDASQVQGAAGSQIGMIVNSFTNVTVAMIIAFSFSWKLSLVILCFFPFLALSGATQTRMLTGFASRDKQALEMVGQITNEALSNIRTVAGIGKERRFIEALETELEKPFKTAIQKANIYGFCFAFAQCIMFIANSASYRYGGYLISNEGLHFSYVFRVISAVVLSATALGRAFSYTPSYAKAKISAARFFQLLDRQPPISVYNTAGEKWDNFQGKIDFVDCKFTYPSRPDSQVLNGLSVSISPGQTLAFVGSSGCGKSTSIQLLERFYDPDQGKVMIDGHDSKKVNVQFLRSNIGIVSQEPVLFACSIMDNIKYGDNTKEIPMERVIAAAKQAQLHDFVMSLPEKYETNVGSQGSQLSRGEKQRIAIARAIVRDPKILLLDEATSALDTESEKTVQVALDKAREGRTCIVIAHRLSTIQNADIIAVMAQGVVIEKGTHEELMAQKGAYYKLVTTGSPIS

BSEP [3] = target: T2, BSEP (Mus musculus, UniProt Q9QY30); assay: Inhibition of BSEP activity (transport of taurocholate) in mouse hepatocytes
T2 sequence (Q9QY30 1-1321): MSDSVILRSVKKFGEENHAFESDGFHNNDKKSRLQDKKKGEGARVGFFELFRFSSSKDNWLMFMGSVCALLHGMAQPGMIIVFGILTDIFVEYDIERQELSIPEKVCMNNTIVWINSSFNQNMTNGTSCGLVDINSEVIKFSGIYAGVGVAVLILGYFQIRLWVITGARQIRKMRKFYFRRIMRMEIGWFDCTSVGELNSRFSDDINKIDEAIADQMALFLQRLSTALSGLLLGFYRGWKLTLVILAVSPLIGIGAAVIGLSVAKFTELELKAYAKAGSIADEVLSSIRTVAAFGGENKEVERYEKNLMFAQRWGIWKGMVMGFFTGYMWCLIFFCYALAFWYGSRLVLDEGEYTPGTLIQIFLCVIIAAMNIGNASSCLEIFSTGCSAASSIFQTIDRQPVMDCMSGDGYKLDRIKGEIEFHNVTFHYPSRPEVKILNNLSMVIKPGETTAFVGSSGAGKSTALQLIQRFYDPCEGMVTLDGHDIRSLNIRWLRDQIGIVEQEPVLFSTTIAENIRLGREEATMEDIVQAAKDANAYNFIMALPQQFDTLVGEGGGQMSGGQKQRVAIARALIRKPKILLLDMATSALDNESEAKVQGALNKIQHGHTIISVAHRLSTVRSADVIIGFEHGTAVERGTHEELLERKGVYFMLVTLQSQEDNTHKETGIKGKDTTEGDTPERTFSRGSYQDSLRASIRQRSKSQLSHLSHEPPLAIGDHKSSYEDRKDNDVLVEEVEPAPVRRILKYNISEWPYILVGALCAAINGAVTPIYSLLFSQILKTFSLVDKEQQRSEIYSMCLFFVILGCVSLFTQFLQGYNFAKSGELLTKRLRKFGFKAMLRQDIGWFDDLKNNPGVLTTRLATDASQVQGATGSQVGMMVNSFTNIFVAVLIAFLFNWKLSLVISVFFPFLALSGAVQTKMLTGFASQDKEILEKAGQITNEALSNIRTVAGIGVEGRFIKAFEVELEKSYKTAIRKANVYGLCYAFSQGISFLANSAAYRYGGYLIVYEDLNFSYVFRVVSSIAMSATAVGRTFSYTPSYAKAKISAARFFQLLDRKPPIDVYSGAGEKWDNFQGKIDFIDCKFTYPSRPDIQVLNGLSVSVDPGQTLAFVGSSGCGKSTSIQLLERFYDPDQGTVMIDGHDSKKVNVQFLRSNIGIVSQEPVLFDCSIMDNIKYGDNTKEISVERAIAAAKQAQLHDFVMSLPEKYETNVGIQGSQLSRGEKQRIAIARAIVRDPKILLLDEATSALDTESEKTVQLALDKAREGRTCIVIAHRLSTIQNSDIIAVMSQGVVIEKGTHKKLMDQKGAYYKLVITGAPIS

BSEP [4] = target: BSEP (Macaca fascicularis, UniProt D2CFL3); assay: in vitro; details: monkey, hepatocytes in suspension, probe taurocholate
Chain of BSEP (Macaca fascicularis, UniProt D2CFL3) (D2CFL3 1-1323): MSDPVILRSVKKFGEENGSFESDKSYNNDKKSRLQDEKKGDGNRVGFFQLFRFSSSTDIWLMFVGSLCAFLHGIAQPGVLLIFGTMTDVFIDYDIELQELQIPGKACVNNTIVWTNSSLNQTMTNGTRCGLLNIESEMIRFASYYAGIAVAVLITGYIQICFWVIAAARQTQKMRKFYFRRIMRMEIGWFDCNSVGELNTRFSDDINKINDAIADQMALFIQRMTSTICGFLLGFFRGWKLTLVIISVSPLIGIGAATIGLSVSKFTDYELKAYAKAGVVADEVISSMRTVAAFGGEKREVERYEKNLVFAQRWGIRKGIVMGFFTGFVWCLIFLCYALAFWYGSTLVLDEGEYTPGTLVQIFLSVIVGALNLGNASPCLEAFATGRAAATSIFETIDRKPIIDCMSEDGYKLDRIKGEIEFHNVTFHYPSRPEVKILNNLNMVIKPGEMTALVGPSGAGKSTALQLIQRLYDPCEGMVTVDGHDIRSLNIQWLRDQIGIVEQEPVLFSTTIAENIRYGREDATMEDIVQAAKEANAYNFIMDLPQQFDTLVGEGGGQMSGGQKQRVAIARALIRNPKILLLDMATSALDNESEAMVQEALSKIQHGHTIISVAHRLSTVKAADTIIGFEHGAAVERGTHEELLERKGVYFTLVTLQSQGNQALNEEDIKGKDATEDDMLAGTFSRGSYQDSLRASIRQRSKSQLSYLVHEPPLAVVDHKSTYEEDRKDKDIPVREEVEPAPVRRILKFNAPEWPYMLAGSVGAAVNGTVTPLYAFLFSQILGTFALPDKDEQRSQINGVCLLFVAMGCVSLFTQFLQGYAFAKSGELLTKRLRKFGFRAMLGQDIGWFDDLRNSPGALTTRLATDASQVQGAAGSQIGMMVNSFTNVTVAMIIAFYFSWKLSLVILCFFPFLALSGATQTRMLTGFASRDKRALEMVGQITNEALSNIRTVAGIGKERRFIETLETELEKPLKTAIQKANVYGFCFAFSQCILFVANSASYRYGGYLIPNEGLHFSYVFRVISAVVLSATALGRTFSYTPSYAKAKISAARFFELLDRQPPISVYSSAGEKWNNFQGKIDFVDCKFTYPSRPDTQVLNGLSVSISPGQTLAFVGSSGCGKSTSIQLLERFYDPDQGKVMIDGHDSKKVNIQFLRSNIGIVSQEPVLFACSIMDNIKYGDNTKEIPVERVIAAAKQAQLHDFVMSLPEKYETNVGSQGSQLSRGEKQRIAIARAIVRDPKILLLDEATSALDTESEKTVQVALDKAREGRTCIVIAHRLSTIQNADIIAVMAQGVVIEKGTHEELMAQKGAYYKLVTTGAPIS

[5] = hepatocytes in suspension, probe glycocholate
[6] = hepatocytes in suspension, probe taurocholate

COC(=O)N[C@H](C(=O)N[C@@H](Cc1ccccc1)[C@@H](O)CN(Cc1ccc(-c2ccccn2)cc1)NC(=O)[C@@H](NC(=O)OC)C(C)(C)C)C(C)(C)C [Atazanavir, atazanavir]
inhibition at 1 h, 1 μM (BSEP [1]; [5]): > 50% | inhibition at 1 h, 10 μM (BSEP [1]; [5]): > 50% | inhibition at 1 h, 1 μM (BSEP [2]; [5]): < 50% | inhibition at 1 h, 10 μM (BSEP [2]; [5]): > 50% | inhibition at 1 h, 1 μM (BSEP [3]; [6]): < 50% | inhibition at 1 h, 10 μM (BSEP [3]; [6]): < 50% | inhibition at 1 h, 1 μM (BSEP [4]): < 50% | inhibition at 1 h, 10 μM (BSEP [4]): > 50%

C[C@@H](Oc1cc(-c2cnn(C3CCNCC3)c2)cnc1N)c1c(Cl)ccc(F)c1Cl [Crizotinib, crizotinib]
inhibition at 1 h, 1 μM (BSEP [1]; [5]): < 50% | inhibition at 1 h, 10 μM (BSEP [1]; [5]): > 50% | inhibition at 1 h, 1 μM (BSEP [2]; [5]): < 50% | inhibition at 1 h, 10 μM (BSEP [2]; [5]): > 50% | inhibition at 1 h, 1 μM (BSEP [3]; [6]): < 50% | inhibition at 1 h, 10 μM (BSEP [3]; [6]): < 50% | inhibition at 1 h, 1 μM (BSEP [4]): < 50% | inhibition at 1 h, 10 μM (BSEP [4]): < 50%

OC(Cn1cncn1)(Cn1cncn1)c1ccc(F)cc1F [Fluconazole, fluconazole]
inhibition at 1 h, 1 μM (BSEP [1]; [5]): < 50% | inhibition at 1 h, 10 μM (BSEP [1]; [5]): < 50% | inhibition at 1 h, 1 μM (BSEP [2]; [5]): < 50% | inhibition at 1 h, 10 μM (BSEP [2]; [5]): < 50% | inhibition at 1 h, 1 μM (BSEP [3]; [6]): < 50% | inhibition at 1 h, 10 μM (BSEP [3]; [6]): < 50% | inhibition at 1 h, 1 μM (BSEP [4]): < 50% | inhibition at 1 h, 10 μM (BSEP [4]): < 50%

CC(=O)N1CCN(c2ccc(OCC3COC(Cn4ccnc4)(c4ccc(Cl)cc4Cl)O3)cc2)CC1 (stereo not shown) [Ketoconazole, ketoconazole]
inhibition at 1 h, 1 μM (BSEP [1]; [5]): < 50% | inhibition at 1 h, 10 μM (BSEP [1]; [5]): > 50% | inhibition at 1 h, 1 μM (BSEP [2]; [5]): < 50% | inhibition at 1 h, 10 μM (BSEP [2]; [5]): < 50% | inhibition at 1 h, 1 μM (BSEP [3]; [6]): < 50% | inhibition at 1 h, 10 μM (BSEP [3]; [6]): < 50% | inhibition at 1 h, 1 μM (BSEP [4]): < 50% | inhibition at 1 h, 10 μM (BSEP [4]): > 50%

Cc1c(O)cccc1C(=O)N[C@@H](CSc1ccccc1)[C@H](O)CN1C[C@H]2CCCC[C@H]2C[C@H]1C(=O)NC(C)(C)C [Nelfinavir, nelfinavir]
inhibition at 1 h, 1 μM (BSEP [1]; [5]): < 50% | inhibition at 1 h, 10 μM (BSEP [1]; [5]): > 50% | inhibition at 1 h, 1 μM (BSEP [2]; [5]): < 50% | inhibition at 1 h, 10 μM (BSEP [2]; [5]): > 50% | inhibition at 1 h, 1 μM (BSEP [3]; [6]): < 50% | inhibition at 1 h, 10 μM (BSEP [3]; [6]): < 50% | inhibition at 1 h, 1 μM (BSEP [4]): < 50% | inhibition at 1 h, 10 μM (BSEP [4]): > 50%

CC(C)NCC(O)COc1cccc2ccccc12 (stereo not shown) [Propranolol, propranolol]
inhibition at 1 h, 1 μM (BSEP [1]; [5]): < 50% | inhibition at 1 h, 10 μM (BSEP [1]; [5]): < 50% | inhibition at 1 h, 1 μM (BSEP [2]; [5]): < 50% | inhibition at 1 h, 10 μM (BSEP [2]; [5]): < 50% | inhibition at 1 h, 1 μM (BSEP [3]; [6]): < 50% | inhibition at 1 h, 10 μM (BSEP [3]; [6]): < 50% | inhibition at 1 h, 1 μM (BSEP [4]): < 50% | inhibition at 1 h, 10 μM (BSEP [4]): < 50%

O=c1c(O)c(-c2ccc(O)c(O)c2)oc2cc(O)cc(O)c12 [Quercetin, quercetin]
inhibition at 1 h, 1 μM (BSEP [1]; [5]): < 50% | inhibition at 1 h, 10 μM (BSEP [1]; [5]): < 50% | inhibition at 1 h, 1 μM (BSEP [2]; [5]): < 50% | inhibition at 1 h, 10 μM (BSEP [2]; [5]): < 50% | inhibition at 1 h, 1 μM (BSEP [3]; [6]): < 50% | inhibition at 1 h, 10 μM (BSEP [3]; [6]): < 50% | inhibition at 1 h, 1 μM (BSEP [4]): < 50% | inhibition at 1 h, 10 μM (BSEP [4]): < 50%

C=C[C@H]1C[N@@]2CC[C@H]1C[C@@H]2[C@@H](O)c1ccnc2ccc(OC)cc12 [Quinidine, quinidine]
inhibition at 1 h, 1 μM (BSEP [1]; [5]): < 50% | inhibition at 1 h, 10 μM (BSEP [1]; [5]): < 50% | inhibition at 1 h, 1 μM (BSEP [2]; [5]): < 50% | inhibition at 1 h, 10 μM (BSEP [2]; [5]): < 50% | inhibition at 1 h, 1 μM (BSEP [3]; [6]): < 50% | inhibition at 1 h, 10 μM (BSEP [3]; [6]): < 50% | inhibition at 1 h, 1 μM (BSEP [4]): < 50% | inhibition at 1 h, 10 μM (BSEP [4]): < 50%

S=P(N1CC1)(N1CC1)N1CC1 [Thiotepa, thiotepa]
inhibition at 1 h, 1 μM (BSEP [1]): < 50% | inhibition at 1 h, 10 μM (BSEP [1]): < 50% | inhibition at 1 h, 1 μM (BSEP [2]): < 50% | inhibition at 1 h, 10 μM (BSEP [2]): < 50% | inhibition at 1 h, 1 μM (BSEP [3]): < 50% | inhibition at 1 h, 10 μM (BSEP [3]): < 50% | inhibition at 1 h, 1 μM (BSEP [4]): < 50% | inhibition at 1 h, 10 μM (BSEP [4]): < 50%

Cc1c(C)c2c(c(C)c1O)CCC(C)(COc1ccc(CC3SC(=O)NC3=O)cc1)O2 (stereo not shown) [Troglitazone, troglitazone]
inhibition at 1 h, 1 μM (BSEP [1]; [5]): > 50% | inhibition at 1 h, 10 μM (BSEP [1]; [5]): > 50% | inhibition at 1 h, 1 μM (BSEP [2]; [5]): > 50% | inhibition at 1 h, 10 μM (BSEP [2]; [5]): > 50% | inhibition at 1 h, 1 μM (BSEP [3]; [6]): < 50% | inhibition at 1 h, 10 μM (BSEP [3]; [6]): < 50% | inhibition at 1 h, 1 μM (BSEP [4]): < 50% | inhibition at 1 h, 10 μM (BSEP [4]): > 50%

CC[C@]1(O)C[C@@H]2CN(CCc3c([nH]c4ccccc34)[C@@](C(=O)OC)(c3cc4c(cc3OC)N(C)[C@H]3[C@@](O)(C(=O)OC)[C@H](OC(C)=O)[C@]5(CC)C=CCN6CC[C@]43[C@@H]65)C2)C1 [Vinblastine, vinblastine]
inhibition at 1 h, 1 μM (BSEP [1]; [5]): < 50% | inhibition at 1 h, 10 μM (BSEP [1]; [5]): > 50% | inhibition at 1 h, 1 μM (BSEP [2]; [5]): < 50% | inhibition at 1 h, 10 μM (BSEP [2]; [5]): > 50% | inhibition at 1 h, 1 μM (BSEP [3]; [6]): < 50% | inhibition at 1 h, 10 μM (BSEP [3]; [6]): < 50% | inhibition at 1 h, 1 μM (BSEP [4]): < 50% | inhibition at 1 h, 10 μM (BSEP [4]): < 50%
